Test results from patent publication US6821967B2, “Substituted piperazine derivatives, the preparation thereof and their use as medicaments” (Boehringer Ingelheim Pharma KG, priority 1999, dated 2004).

Row | Structure (SMILES) | melting point [°C]
1 | COC(=O)CNC(=O)C1(CCCCN2CCN(c3ccc4ccccc4n3)CC2)c2ccccc2-c2ccccc21 [Example 95, 9-[4-(4-quinolin-2-yl-piperazin-1-yl)-butyl]-9H-fluorene-9-carboxylic acid-(methoxycarbonyl-methyl)-amide] | 53 to 55
2 | O=C(O)CCNC(=O)C1(CCCCN2CCN(c3ccc4ccccc4n3)CC2)c2ccccc2-c2ccccc21 [Example 96, 9-[4-(4-quinolin-2-yl-piperazin-1-yl)-butyl]-9H-fluorene-9-carboxylic acid-(2-carboxy-ethyl)-amide] | 98 to 100
3 | O=C(O)CNC(=O)C1(CCCCN2CCN(c3ccc4ccccc4n3)CC2)c2ccccc2-c2ccccc21 [Example 97, 9-[4-(4-quinolin-2-yl-piperazin-1-yl)-butyl]-9H-fluorene-9-carboxylic acid-(carboxy-methyl)-amide] | 127 to 129
4 | C[C@@H]1CN(c2ccc3ccccc3n2)C[C@H](C)N1CCCCC1(C(=O)NCc2ccc(F)c(F)c2)c2ccccc2-c2ccccc21 [Example 98, 9-[4-(cis-2,6-dimethyl-4-quinolin-2-yl-piperazin-1-yl)-butyl]-9H-fluorene-9-carboxylic acid-3,4-difluoro-benzylamide] | 162
5 | O=C(NCC(F)(F)F)C1(CCCCN2CCN(c3nc4ccccc4s3)CC2)c2ccccc2Oc2ccccc21 [Example 100, 9-[4-(4-benzothiazol-2-yl-piperazin-1-yl)-butyl]-9H-xanthene-9-carboxylic acid-(2,2,2-trifluoro-ethyl)-amide] | 58 to 62
6 | O=C(NCC(F)(F)F)C1(CCCCN2CCN(c3nc4ccccc4o3)CC2)c2ccccc2Oc2ccccc21 [Example 101, 9-[4-(4-benzoxazol-2-yl-piperazin-1-yl)-butyl]-9H-xanthene-9-carboxylic acid-(2,2,2-trifluoro-ethyl)-amide] | 196 to 197
7 | Cn1c(N2CCN(CCCCC3(C(=O)NCC(F)(F)F)c4ccccc4Oc4ccccc43)CC2)nc2ccccc21 [Example 102, 9-{4-[4-(1-methyl-1H-benzimidazol-2-yl)-piperazin-1-yl]-butyl}-9H-xanthene-9-carboxylic acid-(2,2,2-trifluoro-ethyl)-amide] | 110
8 | O=C(NCC(F)(F)F)C1(CCCCN2CCN(c3ccc4ccccc4n3)CC2)c2ccccc2Oc2ccccc21 [Example 103, 9-[4-(4-quinolin-2-yl-piperazin-1-yl)-butyl]-9H-xanthene-9-carboxylic acid-(2,2,2-trifluoro-ethyl)-amide] | 178
9 | O=C(NCC(F)(F)F)C1(CCCCN2CCN(c3ccc4c(Cl)cccc4n3)CC2)c2ccccc2Oc2ccccc21 [Example 104, 9-{4-[4-(5-chloro-quinolin-2-yl)-piperazin-1-yl]-butyl}-9H-xanthene-9-carboxylic acid-(2,2,2-trifluoro-ethyl)-amide] | 160
10 | O=C(NCC(F)(F)F)C1(CCCCN2CCN(c3ccc4cc(Cl)ccc4n3)CC2)c2ccccc2Oc2ccccc21 [Example 105, 9-{4-[4-(6-chloro-quinolin-2-yl)-piperazin-1-yl]-butyl}-9H-xanthene-9-carboxylic acid-(2,2,2-trifluoro-ethyl)-amide] | 165
11 | O=C(NCC(F)(F)F)C1(CCCCN2CCN(c3ccc4cccc(Cl)c4n3)CC2)c2ccccc2Oc2ccccc21 [Example 106, 9-{4-[4-(8-chloro-quinolin-2-yl)-piperazin-1-yl]-butyl}-9H-xanthene-9-carboxylic acid-(2,2,2-trifluoro-ethyl)-amide] | 68
12 | C[C@H]1CN(c2ccc3ccccc3n2)CCN1CCCCC1(C(=O)NCC(F)(F)F)c2ccccc2Oc2ccccc21 [Example 109, 9-{4-[(S)-2-methyl-4-quinolin-2-yl-piperazin-1-yl]-butyl}-9H-xanthene-9-carboxylic acid-(2,2,2-trifluoro-ethyl)-amide] | 52 to 53

Second part, the compound after the results:

Row | melting point [°C] | Structure (SMILES)
13 | 157 | C[C@@H]1CN(c2nc3ccccc3s2)C[C@H](C)N1CCCCC1(C(=O)NCC(F)(F)F)c2ccccc2Oc2ccccc21 [Example 110, 9-[4-(4-benzothiazol-2-yl-cis-2,6-dimethyl-piperazin-1-yl)-butyl]-9H-xanthene-9-carboxylic acid-(2,2,2-trifluoro-ethyl)-amide]
14 | 177 | C[C@@H]1CN(c2ccc3ccccc3n2)C[C@H](C)N1CCCCC1(C(=O)NCC(F)(F)F)c2ccccc2Oc2ccccc21 [Example 111, 9-[4-(cis-2,6-dimethyl-4-quinolin-2-yl-piperazin-1-yl)-butyl]-9H-xanthene-9-carboxylic acid-(2,2,2-trifluoro-ethyl)-amide]
15 | 45 to 53 | CCCCNC(=O)C1(CCCCN2CCN(c3ccc4ccccc4n3)CC2)c2ccccc2Oc2ccccc21 [Example 118, 9-[4-(4-quinolin-2-yl-piperazin-1-yl)-butyl]-9H-xanthene-9-carboxylic acid-Butylamide]
16 | 48 to 58 | O=C(N1CCOCC1)C1(CCCCN2CCN(c3ccc4ccccc4n3)CC2)c2ccccc2Oc2ccccc21 [Example 120, 1-morpholin-4-yl-1-{9-[4-(4-quinolin-2-yl-piperazin-1-yl)-butyl]-9H-xanthene-9-yl}-methanone]
17 | 68 | O=C(NCC(F)(F)F)C1(CCCN2CCN(c3nc4ccccc4s3)CC2)c2ccccc2-c2ccccc21 [Example 122, 9-[3-(4-benzothiazol-2-yl-piperazin-1-yl)-propyl]-9H-fluorene-9-carboxylic acid-(2,2,2-trifluoro-ethyl)-amide]
